{"source": "patent US11319306B2", "about": "“Compositions and methods for treating neurodegenerative diseases” (Azevan Pharmaceuticals, Inc., priority 2014, dated 2022)", "key": {"C57Bl/6J males": {"test_system": "C57Bl/6J males", "experiment": "Social interaction test after chronic social subjugation", "type": "in vivo, mice", "text": "Anti-depressant Effect in the Social Interaction Test. […] A rapid subjugation paradigm in mice lead to diminished social interaction behavior, where the dependent measures are distance traveled and time in the Interaction Zone. A 28-day treatment regimen with chlordiazepoxide (CDP), a standard anxiolytic, had no effect on deficits produced by chronic subordination. Additional details are described in Berton et al. Essential role of BDNF in the mesolimbic dopamine pathway in social defeat stress. Science 311(5762):864-8 (Feb. 10, 2006).\nBriefly, C57Bl/6J males are defeated daily for 10 days by resident, highly aggressive CF-1 males. After 5 minutes of direct exposure, a perforated plastic partition is inserted into the cage that allowed olfactory and visual contact without physical defeat for the remaining 23 hr 55 min each day. The C57 males are exposed to a different resident male in a different cage each day to increase the stress of the procedure (it is observed that all CF-1 males attacked the intruder each day). At the end of the 10 day defeat procedure, the C57 males are tested in an open field apparatus during the dark phase. A dominant male is caged in an area of the open field apparatus termed the “social interaction zone.” Time and distance traveled in the zone are recorded. The C57 males are then divided randomly among the following treatments: AVN246-HCl (2 mg/kg), saline vehicle (0.45%), or chlordiazepoxide (10 mg/kg). Treatments are given daily (i.p.) for 28 days and the animals are retested. Behavioral changes are determined by calculating difference scores (Post-Pretest) and these scores are analyzed."}, "human brain": {"test_system": "human brain", "experiment": "fMRI BOLD imaging of test subjects given intranasal AVP (neurodegenerative disease model), emotional faces task", "type": "in vivo", "details": "following IN-AVP, compared to placebo", "protocol": "Neurodegenerative disease (ND) model. Test subjects are randomized to an ND model group (for example, n=15), and a baseline control group (for example, n=14). The ND model group is administered intranasal arginine vasopressin (IN-AVP), 40 IU Pitressin (JHP Pharmaceuticals) in a sterile aqueous solution. IN-AVP doses are administered in 3 mL intranasal atomizers (MAD300; Wolfe Tory Medical, Salt Lake City) 45 minutes prior to fMRI imaging. The baseline control group is administered intranasal vehicle only. All test subjects are evaluated by fMRI imaging.\nfMRI imaging. Data are acquired with a Philips Achieva Quasar dual 16 Channel 3T MRI scanner at the University of Chicago Brain Research Imaging Center using a reverse spiral imaging sequence to minimize ventral brain signal dropout. […] Categories include: angry faces, neutral faces, happy faces, and a fixation point. Test subjects are given the “implicit” task of identifying the gender of each image by button press. Statistical parametric maps are generated based on pre-processed 3 mm^3 images that are spatially smoothed with an 8 mm kernel, bandpass filtered to remove drift, checked for excessive movement, and movement-corrected. Images from each individual are warped to an echoplanar image template in Montreal Neurological Institute space. Voxelwise whole brain analysis is conducted on data thresholded at >10 contiguous voxels, with small volume correction p<0.05, to examine effects of test compound versus placebo on BOLD activity in a priori regions of interest (ROI). ROIs of the identified clusters of BOLD differences are extracted as parameter estimates of average BOLD signal intensity in anatomically defined substructures and exported into SPSS (IBM; Armont, N.Y.) for ANCOVA, covarying for baseline parameter estimates in matching ROIs. Extracted parameter estimates of a priori ROIs are also examined with RM-ANOVA in SPSS with the within subjects factor and between subjects factors of all combinations of test compound versus placebo, and IN-AVP versus intranasal placebo. Comparisons are made between emotion conditions (angry faces) and various neutral conditions (neutral faces, happy faces, fixation points). Comparisons are also made between emotion conditions (neutral faces) and various neutral conditions (happy faces, fixation points).\nNeuropsychiatric symptom treatment with vasopressin antagonists. A first group of test subjects in a baseline control group receiving intranasal placebo is randomized to test compound or placebo. A second group of test subjects in a ND model group receiving IN-AVP is randomized to test compound or placebo. Test compound, such as SRX228, SRX246, SRX251, SRX296, or SRX576, or placebo is administered in blinded form for 5-10 days (mean 7.3+/−1.3 days; minimum 5 days; […]) prior to fMRI. Alternatively, test compound, such as SRX228, SRX246, SRX251, SRX296, and SRX576, or placebo is administered in blinded form after IN-AVP or intranasal placebo administration, and prior to fMRI. […] For example, test compound is SRX246 (n=15; 80, 120, or 160 mg po bid) versus placebo (n=14) in oral capsules; or test compound is SRX251 (n=15; 80, 120, or 160 mg po bid) versus placebo (n=14) in oral capsules."}, "awake rats": {"test_system": "awake rats", "experiment": "Resident-intruder model of stress and aggression in rats, awake fMRI neuroimaging", "type": "in vivo, rat", "details": "pretreatment 5 mg/kg 90 minutes before test session, mate + intruder; listed as AVN246", "text": "Resident-intruder model of stress and aggression in rats. Neuroimaging is used to assess the blockade of stress/arousal with test compound compared to control. The effect of AVN251-HCl on functional circuitry was examined using the imaging method for awake rats. Additional details of the assay are described in Ferris et al. Imaging the neural circuitry and chemical control of aggressive motivation.\nMale rats in the company of a female cage mate piloerect in the presence of a male intruder. Piloerection is a sign of stress and aggressive intent and is associated with activation of stress/arousal circuits in the brain. Stress circuit activation in response to an intruder male is assessed by obtaining brain scans viewed from a caudal/dorsal perspective as translucent shells. The localization of activated voxels is mapped as 3D volumes of activation, which are composed of 10 subjects each. Once fully registered and segmented, the statistical responses for each subject are averaged on a voxel-by-voxel basis. Those averaged voxels exceeding a 2.0% threshold are shown in their appropriate spatial location. Functional images are acquired on awake rats at 4.7 T.\nResident male rats from six male/female pairs are imaged while fully awake, and presented with their mate, or their mate+an intruder, a highly stressful stimulus. […] The total volume of brain activation for resident males confronted with their mate alone, mate plus intruder, and mate plus intruder in the presence of AVN251-HCl are viewed as 3D models.\nAwake rats are imaged when presented with their mate, or their mate+an intruder. […] In each scan, the dark shaded areas represent activation of vasopressin receptor signaling."}, "Pharmacokinetics": {"experiment": "Pharmacokinetics", "type": "in vivo", "details": "b.i.d. dosing", "text": "Pharmacokinetics. Compounds described herein are rapidly absorbed after oral administration. Compounds described herein cross the blood-brain-barrier and achieve therapeutically effective concentrations in the CNS. Compounds described herein may be dosed according to a wide variety of protocols, including but not limited to q.d., b.i.d., and the like."}, "human V1a receptor": {"molecular_target": "T1, human V1a receptor (Homo sapiens, UniProt P37288)", "T1 construct": "host or cells: CHO cells (hV1a cell line)", "T1 sequence (P37288 whole entry)": "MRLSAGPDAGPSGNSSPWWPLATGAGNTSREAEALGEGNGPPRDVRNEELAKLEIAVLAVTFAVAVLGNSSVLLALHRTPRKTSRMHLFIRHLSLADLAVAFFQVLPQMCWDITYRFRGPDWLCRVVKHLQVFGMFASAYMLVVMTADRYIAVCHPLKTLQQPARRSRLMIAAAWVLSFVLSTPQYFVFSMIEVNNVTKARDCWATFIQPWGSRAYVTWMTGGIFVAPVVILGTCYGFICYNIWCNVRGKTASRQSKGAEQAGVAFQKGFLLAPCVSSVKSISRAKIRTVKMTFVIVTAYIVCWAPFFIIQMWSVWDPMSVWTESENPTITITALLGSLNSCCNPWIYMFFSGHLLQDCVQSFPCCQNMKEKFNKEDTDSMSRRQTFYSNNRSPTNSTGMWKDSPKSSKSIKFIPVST", "experiment": "Human vasopressin V1a receptor binding assay (3H-AVP competition, hV1a CHO cells)", "in_short": "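Whole CHO cells expressing hV1a were incubated with 1 nM 3H-AVP (as printed \"InM\") and 10-fold dilutions of compound in HEPES/BSA/DMEM buffer, pH 7.0, for 45 min at 37 °C. Non-specific binding was defined with 100 nM cold AVP. Bound radioactivity was SDS-solubilised and counted by scintillation; IC50 from curve fitting.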"}, "V1b receptor": {"molecular_target": "T2, V1b receptor (Homo sapiens, UniProt P47901)", "T2 construct": "expressed in transfected cells; host or cells: CHO-K1 (ATCC), vector pCI-neo, G418-selected clones", "T2 sequence (P47901 1-424)": "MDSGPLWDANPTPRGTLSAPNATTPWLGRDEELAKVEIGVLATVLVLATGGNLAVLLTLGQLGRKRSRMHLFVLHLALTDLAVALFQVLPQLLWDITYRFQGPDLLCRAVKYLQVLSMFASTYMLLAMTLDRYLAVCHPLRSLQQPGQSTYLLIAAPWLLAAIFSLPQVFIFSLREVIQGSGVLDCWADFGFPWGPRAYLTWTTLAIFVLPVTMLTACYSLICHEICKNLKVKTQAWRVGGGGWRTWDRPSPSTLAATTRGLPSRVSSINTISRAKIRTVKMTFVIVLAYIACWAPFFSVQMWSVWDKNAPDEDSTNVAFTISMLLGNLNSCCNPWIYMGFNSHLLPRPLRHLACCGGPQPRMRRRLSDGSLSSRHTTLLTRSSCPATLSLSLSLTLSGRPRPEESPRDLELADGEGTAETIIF", "experiment": "Human or rat vasopressin V1b cell-based receptor binding assay", "details": "receptor selectivity table; read-out: inhibition data Ki, V1b", "text": "Human vasopression V1b receptor-expressing cells. Human vasopressin receptor 1b (hV1b) cDNA (see, Lolait et al., “Extrapituitary expression of the rat V1b vasopressin receptor gene” Proc. Natl. Acad. Sci. USA. 92:6783-7 (1995); de Keyzer et al., “Cloning and characterization of the human V3(V1b) pituitary vasopressin receptor” FEBS Lett. 356:215-20 (1994); Sugimoto et al., “Molecular cloning and functional expression of a cDNA encoding the human V1b vasopressin receptor” J. Biol. Chem. 269:27088-92 (1994)) was inserted into a mammalian cell expression vector PCI-neo (Promega) at EcoR1 site. The recombinant plasmid carrying hV1b cDNA was identified from transformed E. Coli clones and used for the transfection of Chinese hamster ovary cell (CHO-Kl, ATCC). Two micrograms of hV1b receptor DNA was introduced into 10^5 CHO cells cultured in 6-well plate, using Fugene-6 mediated transfection technique (Boehringer Mannheim). Twenty-four hrs post transfection, Cells were then cultured under selection of G-418 (0.25 mg/ml) supplemented to the culture medium. Three days later, limited dilution was carried out to obtain single cell clones in 96-well plates. […]\nHuman or rat vasopression V1b cell-based receptor binding assay. […] Samples were counted in a liquid scintillation counter (Beckman LS3801). IC50 and Ki values were calculated using Prism Curve fitting software. […]"}, "V2": {"molecular_target": "V2 (Homo sapiens, UniProt P30518)", "sequence (P30518 whole entry)": "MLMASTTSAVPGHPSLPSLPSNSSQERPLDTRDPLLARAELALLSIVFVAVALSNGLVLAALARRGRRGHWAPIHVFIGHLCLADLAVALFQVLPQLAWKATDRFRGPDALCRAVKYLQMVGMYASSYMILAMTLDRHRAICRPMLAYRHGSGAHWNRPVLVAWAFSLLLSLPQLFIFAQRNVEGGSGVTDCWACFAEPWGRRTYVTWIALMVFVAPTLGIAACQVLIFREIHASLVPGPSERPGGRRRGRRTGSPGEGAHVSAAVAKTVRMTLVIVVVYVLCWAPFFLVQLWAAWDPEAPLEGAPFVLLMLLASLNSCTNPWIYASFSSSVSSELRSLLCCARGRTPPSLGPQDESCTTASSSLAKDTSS", "experiment": "V2 receptor inhibition data (Ki)", "type": "binding", "details": "receptor selectivity table"}, "[1]": {"details": "difference score (Post-Pretest), daily i.p. for 28 days"}}, "note": "Read-outs that look alike come from different tables or passages of the source.", "data": [{"compound": "CNC1=Nc2ccc(Cl)cc2C(c2ccccc2)=[N+]([O-])C1", "note": "[CDP, chlordiazepoxide]", "values": [{"measurement": "effect on social interaction deficits after chronic subordination", "setting": "C57Bl/6J males; 28-day treatment", "result": "no effect"}, {"measurement": "Distance (traveled in the interaction zone)", "setting": "C57Bl/6J males; [1]", "result": "1.0 ± 5"}, {"measurement": "Time (in the interaction zone)", "setting": "C57Bl/6J males; [1]", "result": "0.0 ± 5"}]}, {"compound": "C[C@@H](NC(=O)[C@@H](CC(=O)N1CCC(N2CCCCC2)CC1)N1C(=O)[C@@H](N2C(=O)OC[C@@H]2c2ccccc2)[C@H]1/C=C/c1ccccc1)c1ccccc1", "note": "[Example 224, 2(R)-[[4-(Piperidinyl)piperidinyl]carbonylmethyl]-2-[3(S)-(4(S)-phenyloxazolidin-2-on-3-yl)-4(R)-(2-styryl)azetidin-2-on-1-yl]acetic acid N—[(R)-α-methylbenzyl]amide]", "values": [{"measurement": "BOLD activation signal in anterior cingulate cortex and medial prefrontal cortex", "setting": "human brain; posttreatment, angry faces versus happy faces", "result": "significantly decreases"}, {"measurement": "BOLD activation signal in temporoparietal cortex (Brodmann Area 39) and amygdala", "setting": "human brain; posttreatment, angry faces versus happy faces, p<0.05", "result": "significantly decreases"}, {"measurement": "BOLD activation signal in temporoparietal cortex (Brodmann Area 39) and amygdala", "setting": "human brain; pretreatment, angry faces versus fixation point, p<0.001", "result": "significantly decreases"}, {"measurement": "BOLD activation signal in medial prefrontal cortex", "setting": "human brain; pretreatment, angry faces versus fixation point, p<0.005", "result": "significantly decreases"}, {"measurement": "cortical reactivity to angry faces in anterior cingulate cortex and medial superior prefrontal cortex", "setting": "human brain; pretreatment", "result": "significantly attenuated"}, {"measurement": "stress/arousal response in amygdala, cortex, hippocampus and thalamus", "setting": "awake rats", "result": "blocked the stress/arousal response"}, {"measurement": "T1/2", "setting": "Pharmacokinetics", "result": "improved"}, {"measurement": "accumulation", "setting": "Pharmacokinetics", "result": 1.7, "unit": "fold"}]}, {"compound": "C[C@@H](NC(=O)[C@@H](CC(=O)N1CCC(N2CCCCC2)CC1)N1C(=O)[C@@H](N2C(=O)OC[C@@H]2c2ccccc2)[C@H]1/C=C/c1cccc(I)c1)c1ccccc1", "note": "[Example 266]", "values": [{"measurement": "IC50", "setting": "human V1a receptor; 3H-AVP competition, CHO cells expressing human V1a, read-out: V1a Binding Affinity IC50", "result": 1.8, "unit": "nM"}, {"measurement": "Ki", "setting": "human V1a receptor; 3H-AVP competition, CHO cells expressing human V1a, read-out: V1a Ki", "result": 1.1, "unit": "nM"}, {"measurement": "Ki", "setting": "human V1a receptor; receptor selectivity table, read-out: inhibition data Ki, V1a", "result": 1.1, "unit": "nM"}, {"measurement": "Ki", "setting": "V1b receptor", "result": "> 100", "unit": "nM"}, {"measurement": "Ki", "setting": "V2", "result": "> 1000", "unit": "nM"}]}]}
